Test results: patent US7858635B2 (priority 2005, dated 2010)
Where two headings read alike, the source gives them in different places.

Assays:
M1 muscarinic receptor = biological target: T1, M1 muscarinic receptor (Homo sapiens, UniProt P11229); test: Functional mobilization of intracellular calcium (FLIPR, Fluo-3), M1-CHO cells; format: cell-based; settings: for Emax: read-out: M1 Efficacy
T1 construct: expressed in transfected cells; host or cells: CHO cells (M1-CHO, under zeocin and G418 selection)
T1 sequence (P11229 1-460): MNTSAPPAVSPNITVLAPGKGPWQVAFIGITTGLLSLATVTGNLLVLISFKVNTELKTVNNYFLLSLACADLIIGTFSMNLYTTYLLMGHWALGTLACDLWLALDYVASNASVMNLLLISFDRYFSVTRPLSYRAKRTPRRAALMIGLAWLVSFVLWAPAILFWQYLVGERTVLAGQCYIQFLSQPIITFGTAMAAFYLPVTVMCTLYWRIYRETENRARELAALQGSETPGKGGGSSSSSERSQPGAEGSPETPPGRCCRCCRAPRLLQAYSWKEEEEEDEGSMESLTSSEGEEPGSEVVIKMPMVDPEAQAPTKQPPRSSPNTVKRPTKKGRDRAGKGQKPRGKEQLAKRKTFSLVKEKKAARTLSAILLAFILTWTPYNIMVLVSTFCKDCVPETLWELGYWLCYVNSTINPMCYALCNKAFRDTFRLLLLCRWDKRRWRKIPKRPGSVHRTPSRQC
How it was run: (§1)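 Intracellular calcium was tracked by fluorescence (488/540 nm) over 60 sec after compound addition to dye-loaded CHO cells expressing the receptor. Inhibitory activity used a 15 min pre-incubation before carbachol at the subtype EC80.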

M4 muscarinic receptor = biological target: T2, M4 muscarinic receptor (Homo sapiens, UniProt P08173); test: Functional mobilization of intracellular calcium (FLIPR, Fluo-3), M4-CHO cells; format: cell-based; settings: for Emax: read-out: M4 Efficacy
T2 construct: expressed in transfected cells; host or cells: CHO cells (M4-CHO, under puromycin, zeocin and blasticidin selection)
T2 sequence (P08173 1-479): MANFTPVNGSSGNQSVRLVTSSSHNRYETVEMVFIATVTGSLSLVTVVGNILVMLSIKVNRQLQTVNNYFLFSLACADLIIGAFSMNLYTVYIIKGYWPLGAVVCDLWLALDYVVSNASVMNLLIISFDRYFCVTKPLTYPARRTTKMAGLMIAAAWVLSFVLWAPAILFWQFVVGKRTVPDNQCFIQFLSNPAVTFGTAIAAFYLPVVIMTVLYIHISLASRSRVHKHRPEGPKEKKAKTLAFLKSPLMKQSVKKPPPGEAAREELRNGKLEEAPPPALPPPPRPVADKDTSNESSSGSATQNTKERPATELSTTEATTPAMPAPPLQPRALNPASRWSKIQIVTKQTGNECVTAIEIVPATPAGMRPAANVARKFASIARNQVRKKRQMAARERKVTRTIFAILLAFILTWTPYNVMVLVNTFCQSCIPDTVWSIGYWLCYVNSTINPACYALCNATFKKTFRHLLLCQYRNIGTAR
How it was run: as §1

[1] = compound nos. 1-454, 100% efficacy is the maximum response obtained with the Carbachol control
[2] = compound nos. 1-454, M1-CHO cells, calcium mobilization
[3] = compound nos. 1-454, M4-CHO cells, calcium mobilization
[4] = compound nos. 455-509, 100% efficacy is the maximum response obtained with the Carbachol control

Row | Structure (SMILES) | Emax (M1 muscarinic receptor; [1]) [%] | M1 Activity (M1 muscarinic receptor; [2]) | Emax (M4 muscarinic receptor; [1]) [%] | M4 Activity (M4 muscarinic receptor; [3]) | further results
1 | CC(=O)N[C@H]1CC2(CCN([C@@H]3C[C@@H]4CC[C@@H]3C4)CC2)c2ccccc21 [compound 158] | > 85 | +++ (activity was measured to be less than or equal to 0.7 μM) | > 70 | + (activity was measured to be greater than or equal to 4.0 μM) | –
2 | Cc1ccc2c(c1)C1(CCN(CC3CCC4CCC3C4)CC1)CN2 (stereo not drawn) [compound 241] | < 65 | ++ (activity was measured to be between 0.7 μM and 3.0 μM) | > 70 | + (activity was measured to be greater than or equal to 4.0 μM) | –
3 | O=C(OC1CCCC1)N1C2CCC1CC(N1CCC3(CC1)C(=O)Nc1ccccc13)C2 (stereo not drawn) [compound 271] | 65 to 85 | +++ (activity was measured to be less than or equal to 0.7 μM) | < 55 | +++ (activity was measured to be less than or equal to 0.1 μM) | –
4 | CCc1nsc(N2CCC(N3CCC4(CC3)CN(C(=O)N(C)C)c3ccccc34)CC2)n1 [compound 476] | – | – | – | – | Emax (M1 muscarinic receptor; [4]): > 100%; M1 Activity (M1 muscarinic receptor; compounds 455-509): +++ (activity was measured to be less than or equal to 2.0 μM); Emax (M4 muscarinic receptor; [4]): > 100%; M4 Activity (M4 muscarinic receptor; compounds 455-509): +++ (activity was measured to be less than or equal to 2.0 μM)
5 | O=C(O[C@H]1CCOC1)N1C2CCC1CC(N1CCC3(CC1)COc1ccc(F)cc13)C2 (stereo partly drawn) [compound 212] | < 65 | + (activity was measured to be greater than or equal to 3.0 μM) | < 55 | + (activity was measured to be greater than or equal to 4.0 μM) | –
6 | CN(C)C(=O)N1CC2(CCN(C3CCN(c4cnccn4)CC3)CC2)c2ccccc21 [compound 464] | – | – | – | – | Emax (M1 muscarinic receptor; [4]): > 100%; M1 Activity (M1 muscarinic receptor; compounds 455-509): +++ (activity was measured to be less than or equal to 2.0 μM); Emax (M4 muscarinic receptor; [4]): > 100%; M4 Activity (M4 muscarinic receptor; compounds 455-509): ++ (activity was measured to be between 2.0 μM and 5.0 μM)
7 | COC(=O)N1CCC(CN2CCC3(CC2)C[C@H](NC(C)=O)c2ccccc23)CC1 [compound 182] | 65 to 85 | + (activity was measured to be greater than or equal to 3.0 μM) | 55 to 70 | + (activity was measured to be greater than or equal to 4.0 μM) | –
8 | CC(=O)N[C@@H]1CC2(CCN([C@@H]3C[C@@H]4CC[C@@H]3C4)CC2)c2ccccc21 [compound 323] | 65 to 85 | ++ (activity was measured to be between 0.7 μM and 3.0 μM) | 55 to 70 | + (activity was measured to be greater than or equal to 4.0 μM) | –
9 | CCOC(=O)N1CCC(N2CCC3(CC2)CN(C(=O)c2ccccc2F)c2ccc(F)cc23)CC1 [compound 267] | < 65 | + (activity was measured to be greater than or equal to 3.0 μM) | < 55 | + (activity was measured to be greater than or equal to 4.0 μM) | –
10 | O=C1Nc2ccccc2C12CCN(C1CC3CCC1C3)CC2 (stereo not drawn) [compound 259] | 65 to 85 | + (activity was measured to be greater than or equal to 3.0 μM) | < 55 | + (activity was measured to be greater than or equal to 4.0 μM) | –
11 | CN(C)C(=O)N1CC2(CCN(C3CCN(c4ncccn4)CC3)CC2)c2cc(F)ccc21 [compound 445] | 65 to 85 | – | 55 to 70 | – | M1 Activity (M1 muscarinic receptor; compound nos. 1-454): ++ (activity was measured to be between 0.7 μM and 3.0 μM); M4 Activity (M4 muscarinic receptor; compound nos. 1-454): +++ (activity was measured to be less than or equal to 0.1 μM)
12 | CCOC(=O)N1CCC(N2CCC3(CC2)CN(C(=O)OCC(C)C)c2ccc(F)cc23)CC1 [compound 30] | > 85 | +++ (activity was measured to be less than or equal to 0.7 μM) | > 70 | +++ (activity was measured to be less than or equal to 0.1 μM) | –
13 | CC(=O)N1CC2(CCN(C3CCN(c4nccs4)CC3)CC2)c2ccccc21 [compound 491] | – | – | – | – | Emax (M1 muscarinic receptor; [4]): < 25%; M1 Activity (M1 muscarinic receptor; compounds 455-509): + (activity was measured to be greater than or equal to 5.0 μM); Emax (M4 muscarinic receptor; [4]): < 25%; M4 Activity (M4 muscarinic receptor; compounds 455-509): ++ (activity was measured to be between 2.0 μM and 5.0 μM)
14 | CCOC(=O)N1CCC(N2CCC3(CC2)CN(C(=O)c2ccc(C)cc2)c2ccc(F)cc23)CC1 [compound 330] | < 65 | + (activity was measured to be greater than or equal to 3.0 μM) | < 55 | + (activity was measured to be greater than or equal to 4.0 μM) | –
15 | CC(=O)N1CCC2(CCN(C3CCN(c4nc(C)cs4)CC3)CC2)c2ccccc21 [compound 483] | – | – | – | – | Emax (M1 muscarinic receptor; [4]): 25 to 100%; M1 Activity (M1 muscarinic receptor; compounds 455-509): ++ (activity was measured to be between 2.0 μM and 5.0 μM); Emax (M4 muscarinic receptor; [4]): 25 to 100%; M4 Activity (M4 muscarinic receptor; compounds 455-509): ++ (activity was measured to be between 2.0 μM and 5.0 μM)
16 | Cc1ccc2c(c1)C1(CCN(C3CC4CCC3C4)CC1)CN2S(=O)(=O)c1ccccc1 (stereo not drawn) [compound 354] | 65 to 85 | + (activity was measured to be greater than or equal to 3.0 μM) | 55 to 70 | + (activity was measured to be greater than or equal to 4.0 μM) | –
17 | CCOC(=O)N1CCC(N2CCC3(CC2)CN(C(C)=O)c2ccc(-c4cccc(F)c4)cc23)CC1 [compound 84] | 65 to 85 | +++ (activity was measured to be less than or equal to 0.7 μM) | 55 to 70 | ++ (activity was measured to be between 0.1 μM and 4.0 μM) | –
18 | CCOC(=O)N1C2CCC1CC(N1CCC3(CC1)CC(NC(C)=O)c1ccccc13)C2 (stereo not drawn) [compound 318] | 65 to 85 | +++ (activity was measured to be less than or equal to 0.7 μM) | > 70 | +++ (activity was measured to be less than or equal to 0.1 μM) | –
19 | CCOC(=O)N1CCC(N2CCC3(CC2)CN(C(=O)OCCF)c2ccc(F)cc23)CC1 [compound 370] | 65 to 85 | +++ (activity was measured to be less than or equal to 0.7 μM) | > 70 | ++ (activity was measured to be between 0.1 μM and 4.0 μM) | –
20 | Cc1cc(C(=O)N2CC3(CCN(C4CC5CCC(C4)N5C(=O)O[C@H]4CCOC4)CC3)c3cc(F)ccc32)nn1C (stereo partly drawn) [compound 411] | – | – | – | – | M1 Activity (M1 muscarinic receptor; compound nos. 1-454): +++ (activity was measured to be less than or equal to 0.7 μM); M1 Efficacy (M1 muscarinic receptor; [1]): + (efficacy was calculated to be 65% or less); M4 Activity (M4 muscarinic receptor; compound nos. 1-454): ++ (activity was measured to be between 0.1 μM and 4.0 μM); M4 Efficacy (M4 muscarinic receptor; [1]): + (efficacy was calculated to be 55% or less)
21 | CCCC1CCC(N2CCC3(CC2)CNc2ccccc23)CC1 (stereo not drawn) [compound 334] | < 65 | + (activity was measured to be greater than or equal to 3.0 μM) | < 55 | + (activity was measured to be greater than or equal to 4.0 μM) | –
